# Read-outs that look alike come from different tables or passages of the source.
# Assays:
# [1] = L-carnitine levels in patients taking AD; type: in vivo
# Text: Formulations containing crystalline AD and an excipient(s) may also contain L-carnitine or salts of L-carnitine, e.g., L-carnitine-L-tartrate (2:1). […] Tablets containing L-carnitine-L-tartrate and AD may decrease the effect of pivalic acid on L-carnitine depletion in patients taking AD. The amount of L-carnitine to be included will be apparent to the clinician in view of the extent of depletion in patients.
# [2] = AD solubility in crystallization solvents; type: physicochemical; conditions: for solubility: organic solvent or mixture
# Procedure: Crystalline AD is prepared by allowing crystal formation in an AD composition, usually from a solution of AD in a crystallization mixture containing at least about 6%, typically at least about 30%, usually at least about 35%, of AD. One would ordinarily conduct crystallizations by preparing an AD solution comprising about 6-45% AD and about 55-94% crystallization solvent. […] AD is not freely soluble in some crystallization solvents, e.g., AD solubility in di-n-butyl ether is less than about 0.3 mg/mL, and adding these solvents to an AD solution increases the degree of saturation or supersaturation of the solution. One usually uses organic solutions containing an amount of AD that is near the upper solubility limit in the crystallization solvent(s). The lower amount, about 6%, is the minimum amount of AD needed in a solution to consistently yield crystals. Certain solvents, e.g., methanol or CH2Cl2, can contain more than about 50% AD.
# One usually prepares Form 3 crystals by allowing crystals to grow in an anhydrous methanol solution of AD. One obtains AD in methanol by mixing sufficient noncrystalline or crystalline AD in methanol for about 10-15 minutes at room temperature or as needed to dissolve the solid AD to obtain a solution having at least about 100-150 mg AD/mL methanol. AD solubility in methanol at room temperature is greater than 600 mg/mL. Crystallization then proceeds for about 4 to about 48 hours at a temperature of about −5° to about 25°, usually at about 0-23°.
# Recrystallization generally begins shortly after completion of adding and mixing the di-n-butyl ether and one then allows recrystallization to proceed for about 4-36 hours, usually about 6-24 hours. Additional yield of crystals from recrystallization at room temperature for about 4-36 hours is usually obtained by cooling the recrystallization mixture to about 4-10° and allowing the mixture to stand about 1-6 hours at the reduced temperature. Usually, the amount of AD one uses in a recrystallization will be sufficient to form a saturated or nearly saturated solution, i.e., about 0.4 g/mL using acetone. Dissolution of AD in acetone is complete in about 2-8 minutes using moderate agitation. Material remaining undissolved after this initial mixing period is removed and discarded, followed by adding the second less polar solvent of the solvent pair to the mixture containing the first crystallization solvent.
# One conducts a Form 3 recrystallization in methanol in the same manner as described herein for preparation of Form 3 crystals. A saturated or nearly saturated methanol solution is used to prepare the crystals, i.e., at least about 0.6 g/mL AD.
smiles,measurement,setting,value
"CC(C)(C)C(=O)OCOP(=O)(COCCn1cnc2c(N)ncnc21)OCOC(=O)C(C)(C)C [AD, 9-[2-[[bis[(pivaloyloxy)methoxy]phosphinyl]methoxy]ethyl]adenine]",effect on L-carnitine levels (release of pivalic acid in vivo),[1],appears to lower the levels of L-carnitine
same,saturated or nearly saturated solution of AD,[2]; acetone,about 0.4 g/mL
same,solubility,"[2]; di-n-butyl ether, read-out: AD solubility in di-n-butyl ether",< 0.3 mg/mL
same,saturated or nearly saturated solution of AD,[2]; methanol,at least 0.6 g/mL
same,amount of AD the solvent can contain,"[2]; methanol or CH2Cl2, % w/w",more than 50%
same,upper limit of solubility of AD,"[2]; most crystallization solvents, room temperature, % w/w",10-41%
same,solubility,"[2]; methanol, room temperature, read-out: AD solubility in methanol",> 600 mg/mL
